Data set [1] in a line: Phase 1 two-period crossover study of the effect of quinidine on the pharmacokinetics of opicapone (plasma PK). The class given is in vivo, human. Conditions: for AUC(0-inf) / AUC(0-t) / Cmax / half-life: plasma, 50 mg. The source says: A Phase 1, Randomized, Open-Label, Two-Period Crossover Study to Assess the Effect of Quinidine on the Pharmacokinetics of Opicapone (OPC) in Healthy Subjects
This was a Phase 1, randomized, open-label, 2-period crossover drug interaction study of the effect of quinidine on the PK of OPC in healthy subjects. A total of 20 subjects (10 males and 10 females) were randomized to 1 of 2 treatment sequences (5 males and 5 females per sequence) as depicted in the table below. Randomization to treatment sequence were stratified by gender. Enrolled subjects received a single dose of each of the following treatments under fasted conditions: OPC 50 mg and quinidine 600 mg plus OPC 50 mg (OPC will be administered 1 hour after quinidine). There was be a 14-day washout between the doses in each treatment period.
Subjects fasted overnight for at least 10 hours before OPC dosing on Day 1 and continued to fast for an additional 4 hours after OPC dosing.
Blood samples for the assessment of plasma concentrations of OPC and its metabolites were collected within 30 minutes predose and approximately 0.5, 1, 1.5, 2, 3, 4, 6, 8, 10, 12, 24, 48, 72, 96, and 120 hours postdose. The PK parameters to be calculated included the following for OPC and its metabolites:
Blood samples for the assessment of plasma concentrations of OPC and its metabolites were collected within 30 minutes predose and approximately 0.5, 1, 1.5, 2, 3, 4, 6, 8, 10, 12, 24, 48, 72, 96, and 120 hours postdose.
The following plasma PK parameters were calculated only for OPC: • Apparent systemic clearance after oral administration (CL/F). • Apparent volume of distribution during the terminal phase after oral administration (Vz/F).
PK parameters for OPC and its metabolites were calculated using noncompartmental methods. […] Safety data will be summarized with descriptive statistics.
Pharmacokinetic parameters (AUC0-inf, AUC0-t, and Cmax) for Opicapone were natural log-transformed prior to analysis and evaluated separately using a linear mixed effects model with fixed effects terms for sequence, period, and treatment. […] CV %=SQRT[exp(s^2)−1]×100 and ‘s’ is the standard deviation of the log-transformed values.

For the next data set, the target named is T1, OATP1B3 (Homo sapiens, UniProt Q9NPD5).
T1 sequence (Q9NPD5 1-702): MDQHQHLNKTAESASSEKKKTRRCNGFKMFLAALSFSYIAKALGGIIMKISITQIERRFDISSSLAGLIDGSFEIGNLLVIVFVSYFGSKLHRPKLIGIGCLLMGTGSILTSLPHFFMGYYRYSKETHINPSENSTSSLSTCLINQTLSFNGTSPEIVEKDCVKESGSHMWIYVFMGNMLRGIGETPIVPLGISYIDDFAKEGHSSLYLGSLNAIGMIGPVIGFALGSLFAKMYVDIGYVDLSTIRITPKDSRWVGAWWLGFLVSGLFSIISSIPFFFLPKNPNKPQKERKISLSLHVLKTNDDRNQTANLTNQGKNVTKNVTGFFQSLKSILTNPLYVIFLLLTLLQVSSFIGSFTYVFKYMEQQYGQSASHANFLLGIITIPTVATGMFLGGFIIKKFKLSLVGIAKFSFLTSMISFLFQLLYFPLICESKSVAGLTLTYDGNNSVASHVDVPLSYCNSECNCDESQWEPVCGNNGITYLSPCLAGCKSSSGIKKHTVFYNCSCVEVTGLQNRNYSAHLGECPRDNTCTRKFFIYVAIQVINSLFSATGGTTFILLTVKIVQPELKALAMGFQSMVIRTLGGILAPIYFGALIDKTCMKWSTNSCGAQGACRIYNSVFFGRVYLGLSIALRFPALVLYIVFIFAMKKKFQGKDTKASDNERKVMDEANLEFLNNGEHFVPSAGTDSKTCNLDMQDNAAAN
Conditions: in vitro; cited from earlier work.

The target in the next data set is T2, BCRP (Homo sapiens, UniProt Q9UNQ0).
T2 sequence (Q9UNQ0 1-655): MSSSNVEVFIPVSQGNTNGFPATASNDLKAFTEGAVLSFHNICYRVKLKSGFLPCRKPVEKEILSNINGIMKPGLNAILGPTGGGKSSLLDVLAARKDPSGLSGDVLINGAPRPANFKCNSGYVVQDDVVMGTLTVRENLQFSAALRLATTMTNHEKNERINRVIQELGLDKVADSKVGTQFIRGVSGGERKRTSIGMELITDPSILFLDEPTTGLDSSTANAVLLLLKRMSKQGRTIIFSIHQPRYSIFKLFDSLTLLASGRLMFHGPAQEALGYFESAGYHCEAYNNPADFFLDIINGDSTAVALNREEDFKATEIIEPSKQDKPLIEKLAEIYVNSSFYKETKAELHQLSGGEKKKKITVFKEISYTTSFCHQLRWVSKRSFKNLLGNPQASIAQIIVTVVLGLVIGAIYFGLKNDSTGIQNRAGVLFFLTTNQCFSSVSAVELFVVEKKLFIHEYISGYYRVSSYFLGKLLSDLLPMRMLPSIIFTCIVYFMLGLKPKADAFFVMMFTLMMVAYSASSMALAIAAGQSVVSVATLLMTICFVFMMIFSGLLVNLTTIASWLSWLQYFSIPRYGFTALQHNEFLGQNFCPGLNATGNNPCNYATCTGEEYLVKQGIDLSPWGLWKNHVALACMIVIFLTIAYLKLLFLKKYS
The note with it: in vitro; cited from earlier work.

The target of data set [2] is P-gp/MDR1 efflux transporter (Homo sapiens, UniProt P08183). The note with it: in vitro; cited from earlier work.
Sequence of P-gp/MDR1 efflux transporter (P08183 whole entry): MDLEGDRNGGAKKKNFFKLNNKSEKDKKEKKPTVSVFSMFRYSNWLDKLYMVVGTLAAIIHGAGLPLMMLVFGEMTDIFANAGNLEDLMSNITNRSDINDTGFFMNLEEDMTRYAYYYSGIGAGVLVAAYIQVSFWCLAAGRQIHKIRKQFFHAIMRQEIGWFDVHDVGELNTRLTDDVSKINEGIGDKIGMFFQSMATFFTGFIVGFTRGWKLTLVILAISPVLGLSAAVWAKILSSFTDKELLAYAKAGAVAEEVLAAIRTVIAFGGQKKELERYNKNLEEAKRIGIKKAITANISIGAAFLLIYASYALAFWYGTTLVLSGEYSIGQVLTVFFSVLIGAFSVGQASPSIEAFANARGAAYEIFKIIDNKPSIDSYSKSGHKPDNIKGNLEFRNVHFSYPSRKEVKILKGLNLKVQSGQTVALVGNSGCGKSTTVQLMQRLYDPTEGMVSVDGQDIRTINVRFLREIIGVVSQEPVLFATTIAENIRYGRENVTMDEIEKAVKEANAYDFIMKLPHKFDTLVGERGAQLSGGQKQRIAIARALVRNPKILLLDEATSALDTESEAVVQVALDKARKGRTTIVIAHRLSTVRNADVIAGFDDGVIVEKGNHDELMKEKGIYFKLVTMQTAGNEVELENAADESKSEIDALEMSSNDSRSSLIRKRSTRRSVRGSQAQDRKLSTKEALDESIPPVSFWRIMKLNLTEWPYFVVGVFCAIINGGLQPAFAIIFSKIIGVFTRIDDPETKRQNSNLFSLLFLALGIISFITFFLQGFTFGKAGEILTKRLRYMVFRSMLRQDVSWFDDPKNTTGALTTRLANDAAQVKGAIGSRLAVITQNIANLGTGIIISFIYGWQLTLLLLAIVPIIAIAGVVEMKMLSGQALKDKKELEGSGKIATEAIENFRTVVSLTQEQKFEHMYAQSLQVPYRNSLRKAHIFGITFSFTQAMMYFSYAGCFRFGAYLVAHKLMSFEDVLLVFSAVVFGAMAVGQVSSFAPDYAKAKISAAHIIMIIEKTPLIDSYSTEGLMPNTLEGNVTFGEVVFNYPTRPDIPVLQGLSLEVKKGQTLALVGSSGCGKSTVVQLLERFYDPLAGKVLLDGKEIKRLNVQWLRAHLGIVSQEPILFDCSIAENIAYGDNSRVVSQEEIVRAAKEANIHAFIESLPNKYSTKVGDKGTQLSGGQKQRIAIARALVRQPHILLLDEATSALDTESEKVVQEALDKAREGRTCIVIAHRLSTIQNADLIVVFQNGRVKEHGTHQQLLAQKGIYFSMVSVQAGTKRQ
The next data set deals with T3, OATP1B1 (Homo sapiens, UniProt Q9Y6L6).
T3 sequence (Q9Y6L6 1-691): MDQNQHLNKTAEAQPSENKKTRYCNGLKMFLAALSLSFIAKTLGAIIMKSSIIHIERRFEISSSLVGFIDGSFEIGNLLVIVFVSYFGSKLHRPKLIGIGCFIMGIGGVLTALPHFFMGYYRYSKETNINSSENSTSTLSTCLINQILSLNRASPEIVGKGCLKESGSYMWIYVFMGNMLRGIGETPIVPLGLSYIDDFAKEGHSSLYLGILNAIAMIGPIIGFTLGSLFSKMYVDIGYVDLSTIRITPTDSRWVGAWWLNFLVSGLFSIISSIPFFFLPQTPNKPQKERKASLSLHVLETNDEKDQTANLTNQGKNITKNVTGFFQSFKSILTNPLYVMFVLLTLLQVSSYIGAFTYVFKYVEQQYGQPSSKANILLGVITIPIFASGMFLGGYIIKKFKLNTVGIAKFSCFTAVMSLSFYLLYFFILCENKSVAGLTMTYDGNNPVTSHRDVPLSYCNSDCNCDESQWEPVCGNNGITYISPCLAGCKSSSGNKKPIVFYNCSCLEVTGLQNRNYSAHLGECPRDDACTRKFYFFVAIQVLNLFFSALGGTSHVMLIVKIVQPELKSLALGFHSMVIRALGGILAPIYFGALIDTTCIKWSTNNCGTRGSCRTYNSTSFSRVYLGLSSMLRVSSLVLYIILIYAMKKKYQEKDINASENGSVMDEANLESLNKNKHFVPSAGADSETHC
The note with it: in vitro; cited from earlier work.

Where two headings read alike, the source gives them in different places.

In the case of `Cc1c(Cl)c(C)[n+]([O-])c(Cl)c1-c1noc(-c2cc(O)c(O)c([N+](=O)[O-])c2)n1` [OPC, 5-[3-(2,5-dichloro-4,6-dimethyl-1-oxy-pyridin-3-yl)-[1,2,4]oxadiazol-5-yl]-3-nitrobenzene-1,2-diol], the Tmax in data set [1] (both sexes, human, oral, opicapone in plasma, healthy subjects, fasted, single dose OPC 50 mg, Median) was 91.8 min. In addition, the AUC(0-inf) turned out to be 2060 ng·h/mL in data set [1] (both sexes, human, oral, opicapone in plasma, healthy subjects, fasted, single dose OPC 50 mg, Geometric Mean (descriptive), read-out: AUC(0-inf), Geometric Mean); 2140 ng·h/mL in data set [1] (both sexes, human, oral, opicapone in plasma, healthy subjects, fasted, single dose OPC 50 mg, Mean, read-out: AUC(0-inf), Mean); 2020 ng·h/mL in data set [1] (both sexes, human, oral, opicapone in plasma, healthy subjects, fasted, single dose OPC 50 mg, Median, read-out: AUC(0-inf), Median); 2030 ng·h/mL in data set [1] (both sexes, human, oral, opicapone, geometric mean from linear mixed effects model, OPC 50 mg, healthy subjects, read-out: AUC0-inf, GM). Moreover, the AUC(0-t) came out at 1960 ng·h/mL in data set [1] (both sexes, human, oral, opicapone in plasma, healthy subjects, fasted, single dose OPC 50 mg, Geometric Mean (descriptive), read-out: AUC(0-last), Geometric Mean); 2040 ng·h/mL in data set [1] (both sexes, human, oral, opicapone in plasma, healthy subjects, fasted, single dose OPC 50 mg, Mean, read-out: AUC(0-last), Mean); 1940 ng·h/mL in data set [1] (both sexes, human, oral, opicapone in plasma, healthy subjects, fasted, single dose OPC 50 mg, Median, read-out: AUC(0-last), Median); 1960 ng·h/mL in data set [1] (both sexes, human, oral, opicapone, geometric mean from linear mixed effects model, OPC 50 mg, healthy subjects, read-out: AUC0-t, GM). Moreover, the Cmax in data set [1] (both sexes, human, oral, opicapone in plasma, healthy subjects, fasted, single dose OPC 50 mg, Geometric Mean (descriptive), read-out: Cmax, Geometric Mean) came to 766 ng/mL; in data set [1] (both sexes, human, oral, opicapone in plasma, healthy subjects, fasted, single dose OPC 50 mg, Mean, read-out: Cmax, Mean), 804 ng/mL; in data set [1] (both sexes, human, oral, opicapone in plasma, healthy subjects, fasted, single dose OPC 50 mg, Median, read-out: Cmax, Median), 782 ng/mL; in data set [1] (both sexes, human, oral, opicapone, geometric mean from linear mixed effects model, OPC 50 mg, healthy subjects, read-out: Cmax, GM), 766 ng/mL. Besides, the half-life in data set [1] (both sexes, human, oral, opicapone in plasma, healthy subjects, fasted, single dose OPC 50 mg, Geometric Mean (descriptive), read-out: t½, Geometric Mean (converted)) is 53.2 min; in data set [1] (both sexes, human, oral, opicapone in plasma, healthy subjects, fasted, single dose OPC 50 mg, Mean, read-out: t½, Mean (converted)) it was 55.1 min; in data set [1] (both sexes, human, oral, opicapone in plasma, healthy subjects, fasted, single dose OPC 50 mg, Median, read-out: t½, Median (converted)) it was 55.9 min. Besides, in data set [1] (in those also being administered quinidine), the “decrease in opicapone exposure” value is “approximately 30%”. The “Tlag, Median” value in data set [1] (opicapone in plasma, healthy subjects, fasted, single dose OPC 50 mg, Median) turned out to be 0.00 h. Moreover, on OATP1B3, the “transported by OATP1B3” value is reported as “transported”. In addition, the “efflux transported by BCRP” value at BCRP was “efflux transported”. In addition, the “efflux transported by P-gp (P-gp/MDR1 substrate)” value in data set [2] was “efflux transported”. On OATP1B1, the “transported by OATP1B1” value was “not transported”.

On to `Cc1c(Cl)c(C)[n+]([O-])c(Cl)c1-c1noc(-c2cc(OS(=O)(=O)O)c(O)c([N+](=O)[O-])c2)n1` [BIA 9-1103], for which the “transported by OATP1B3” value on OATP1B3 was “transported”. On BCRP, the “efflux transported by BCRP” value is “efflux transported”. For the same molecule, in data set [2], the “efflux transported by P-gp (P-gp/MDR1 substrate)” value is recorded as “not a substrate”. Also, the “transported by OATP1B1” value at OATP1B1 is given as “transported”.

These data come from patent publication US12097193B2, “Methods for the administration of COMT inhibitors” (BIAL—PORTELA & CA, S.A., priority 2018, dated 2024).
